Source: ChEMBL document CHEMBL3217729, “Sangamides, a new class of cyclophilin-inhibiting host-targeted antivirals for treatment of HCV infection” (Medchemcomm, 2012)
Values after ≈ are worked out from the molar mass of the structure shown.

What was measured:
[1] = in vitro; conditions: mouse, liver microsomes
Description: Half life in mouse liver microsomes at 1 uM by LC-MS/MS analysis

[2] = Half life in human liver microsomes at 1 uM by LC-MS/MS analysis; format: ADME
[3] = Solubility of the compound in phosphate buffered saline at pH 7.4 after 4 hrs by LC-MS/MS analysis
[4] = tested on: Hepatitis C virus; experiment: Antiviral activity against Hepatitis C virus genotype 1b I389luc-ubi-neo/NS3-3'/5.1 subgenomic replicon infected in human Huh5-2 cells after 4 days by luciferase assay; format: functional, cell-based, Hepacivirus hominis; conditions: Huh-5-2, 96 h
[5] = Half life in human hepatocytes at 1 uM by LC-MS/MS analysis; format: ADME, cell-based, Hepatocyte
[6] = Selectivity index, ratio of CC50 for human Huh5-2 cells to EC50 for Hepatitis C virus genotype 1b I389luc-ubi-neo/NS3-3'/5.1 subgenomic replicon infected in human Huh5-2 cells; format: toxicity, cell-based, Huh-5-2; conditions: read-out: Ratio CC50/EC50
[7] = molecular target: Peptidyl-prolyl cis-trans isomerase A (Homo sapiens, UniProt P62937); experiment: Inhibition of recombinant GST-tagged CypA (unknown origin)/HCV Con1 NS5A-His interaction after 16 hrs by ELISA
Sequence of Peptidyl-prolyl cis-trans isomerase A (P62937 whole entry): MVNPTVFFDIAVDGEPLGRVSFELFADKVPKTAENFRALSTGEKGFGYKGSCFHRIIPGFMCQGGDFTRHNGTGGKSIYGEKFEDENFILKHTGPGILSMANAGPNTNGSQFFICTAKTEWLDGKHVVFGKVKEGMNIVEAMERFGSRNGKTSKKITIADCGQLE

[8] = Cytostatic activity against human Huh5-2 cells assessed as decrease in cell proliferation after 3 days by MTS method; format: ADME, cell-based, Huh-5-2
[9] = tested on: Hepatitis C virus; experiment: Antiviral activity against Hepatitis C virus genotype 2a JFH-1 infected in human Huh7 cells assessed as decrease in subgenomic RNA level after 72 hrs by RT-PCR analysis; format: functional, cell-based, Hepacivirus hominis; conditions: genotype 2a JFH-1, Huh-7, 72 h
[10] = tested on: Hepatitis C virus; experiment: Antiviral activity against Hepatitis C virus genotype 1b Con1 infected in human Huh7 cells assessed as decrease in subgenomic RNA level after 72 hrs by RT-PCR analysis; format: functional, cell-based, Hepacivirus hominis; conditions: genotype 1b Con1, Huh-7, 72 h
[11] = Percentage bound in human plasma at 1 uM after 5 hrs by dialysis chamber method; format: ADME, cell-free; conditions: read-out: PPB (converted)
[12] = tested on: Hepatitis C virus; experiment: Antiviral activity against Hepatitis C virus genotype 1a H77 infected in human Huh7 cells assessed as decrease in subgenomic RNA level after 72 hrs by RT-PCR analysis; format: functional, cell-based, Hepacivirus hominis; conditions: genotype 1a H77, Huh-7, 72 h
[13] = physchem; conditions: n-octanol/potassium phosphate buffer, pH 7.4
[14] = tested on: PBMC; experiment: Immunosuppressive activity in human PBMC isolated from two individuals assessed as inhibition of proliferation using [3H]thymidine by mixed lymphocyte reaction assay; format: cell-based

| Structure (SMILES) | half-life at 1 µM [1] [min] | half-life at 1 µM [2] [min] | solubility at 4 h [3] [µM] | EC50 [4] [nM] | EC90 [4] [nM] | half-life at 1 µM [5] [min] | selectivity ratio [6] | IC50 [7] [nM] | CC50 at 72 h [8] [nM] | EC50 [9] [nM] | EC50 [10] [nM] | fraction unbound at 5 h, 1 µM [11] | EC50 [12] [nM] | logD at 1 h [13] | IC50 [14] [nM] |
| --- | --- | --- | --- | --- | --- | --- | --- | --- | --- | --- | --- | --- | --- | --- | --- |
| CC(=O)CC[C@H]1C(=O)N[C@@H](C(C)C)C(=O)N[C@@H](Cc2cccc(O)c2)C(=O)N2CCCC(N2)C(=O)O[C@H](/C(C)=C/C=C/C(=O)N(C)c2ccccn2)C/C=C/C=C/[C@H](O)[C@H](C)[C@H]1O (stereo partly specified) | 9.8 | 19.1 | 17 (≈ 14.8 µg/mL) | 2010 | 11500 | 150 | > 50 | 330 | > 100000 |  |  |  |  |  |  |
| CC(=O)CC[C@H]1C(=O)N[C@@H](C(C)C)C(=O)N[C@@H](Cc2cccc(O)c2)C(=O)N2CCCC(N2)C(=O)O[C@H](/C(C)=C/C=C/C(=O)N(C)C)C/C=C/C=C/[C@H](O)[C@H](C)[C@H]1O (stereo partly specified) | 24.7 | 48 | > 100 | 349 | 62000 | 128 | > 287 | 630 | > 100000 |  |  |  |  |  |  |
| CC[C@H]1C[C@H](C)[C@@]2(NC1=O)O[C@@H](C[C@H](O)[C@@H](C)CC/C=C/C=C(\C)[C@@H]1C/C=C/C=C/[C@H](O)[C@H](C)[C@@H](O)[C@@H](CCC(C)=O)C(=O)N[C@@H](C(C)C)C(=O)N[C@@H](Cc3cccc(O)c3)C(=O)N3CCCC(N3)C(=O)O1)[C@H](C)[C@H](O)[C@@H]2C (stereo partly specified) | 4 | 7.9 | 45 (≈ 49.1 µg/mL) | 318 | 5500 | 145 |  |  | 9100 | 247 | 222 | < 0.01 | 301 | > 3.7 | 215 |
| CC(=O)CC[C@H]1C(=O)N[C@@H](C(C)C)C(=O)N[C@@H](Cc2cccc(O)c2)C(=O)N2CCCC(N2)C(=O)O[C@H](/C(C)=C/C=C/C(=O)N2CCOCC2)C/C=C/C=C/[C@H](O)[C@H](C)[C@H]1O (stereo partly specified) | 18 | 50.3 | > 100 | 1400 | 7400 | > 240 | > 72 | 330 |  |  |  |  |  |  |  |
| CC(=O)CC[C@H]1C(=O)N[C@@H](C(C)C)C(=O)N[C@@H](Cc2cccc(O)c2)C(=O)N2CCCC(N2)C(=O)O[C@H](/C(C)=C/C=C/C(=O)N(C)C2CCCCC2)C/C=C/C=C/[C@H](O)[C@H](C)[C@H]1O (stereo partly specified) | 1.9 | 3.3 | 48 (≈ 42.1 µg/mL) | 148 | 1900 | > 240 | 446 | 420 | 66000 |  |  |  |  |  |  |
| C/C=C/C[C@@H](C)[C@@H](O)[C@H]1C(=O)N[C@@H](CC)C(=O)N(C)[C@H](C)C(=O)N(CC)[C@@H](C(C)C)C(=O)N[C@@H](C(C)C)C(=O)N(C)[C@@H](CC(C)C)C(=O)N[C@@H](C)C(=O)N[C@H](C)C(=O)N(C)[C@@H](CC(C)C)C(=O)N(C)[C@@H](CC(C)C)C(=O)N(C)[C@@H](C(C)C)C(=O)N1C [ALISPORIVIR] |  |  |  |  |  |  |  |  |  |  |  |  |  |  | 840 |
| CC(=O)CC[C@H]1C(=O)N[C@@H](C(C)C)C(=O)N[C@@H](Cc2cccc(O)c2)C(=O)N2CCCC(N2)C(=O)O[C@H](/C(C)=C/C=C/C(=O)Nc2cccnc2)C/C=C/C=C/[C@H](O)[C@H](C)[C@H]1O (stereo in doubt) | 3.3 | 7.5 | 18 (≈ 15.4 µg/mL) | 2480 | 5410 | 116 | > 40 | 460 | > 100000 |  |  |  |  |  |  |
| CC(=O)CC[C@H]1C(=O)N[C@@H](C(C)C)C(=O)N[C@@H](Cc2cccc(O)c2)C(=O)N2CCCC(N2)C(=O)O[C@H](/C(C)=C/C=C/C(=O)NC(C)C)C/C=C/C=C/[C@H](O)[C@H](C)[C@H]1O (stereo in doubt) | 6.4 | 16.9 | 12 (≈ 9.86 µg/mL) | 560 | 4600 | 59 | > 179 | 380 | > 100000 |  |  |  |  |  |  |
| CC(=O)CC[C@H]1C(=O)N[C@@H](C(C)C)C(=O)N[C@@H](Cc2cccc(O)c2)C(=O)N2CCCC(N2)C(=O)O[C@H](/C(C)=C/C=C/C(=O)NC2CCCCC2)C/C=C/C=C/[C@H](O)[C@H](C)[C@H]1O (stereo in doubt) | 2.7 | 6.5 | 29 (≈ 25 µg/mL) | 336 | 4230 | > 240 | > 298 | 450 | > 100000 |  |  |  |  |  |  |
